In patent US20250171431A1, “HETEROCYCLIC INHIBITORS OF IGF-1R FOR TREATMENT OF DISEASE” (HORIZON THERAPEUTICS IRELAND DAC, priority 2023, published 2025):
pIC50: −log10 of the molar value.

Target: IGF-1R (Homo sapiens (Human), UniProt P08069)
Assay: Example B-1: IGF-1R Assay (PC3 cells, IGF1 stimulation, AlphaLISA)
Format: cell-based
Settings: 200 ng/mL IGF1 stimulation, read-out: Biological Activity against IGF-1R IC50
Description: 50K PC3 cells were seeded on day 1 in 50 μL of media in 96-well plate and incubated overnight at 37° C., 5% CO2. On day 2, all cells were expected to be at 80-90% confluency. Cells were starved for two hours by changing the media to 90 μL of EMEM serum-free media and incubated for 2 hours. Next, cells were treated with 10 μL of 10× concentrated and 3× serially diluted compounds for two hours. It makes 1× of compounds in 100 μL media. This was followed by stimulation of cells with 11×IGF1 for 30 min in 10 μL of serum-free EMEM media at the final concentration of 200 ng/mL.
The media was removed and replaced by 50 μL of 1× lysis buffer from the AlphaLISA kit (with 1× of cOmplete™ protease inhibitor). The plates were sealed, and cells were allowed to lyse for 10 min in the shaker before storing the plate at −20° C. until used. The AlphaLISA assay with processed cell lysates were performed as described in the protocol. Briefly, 10 μL of the undiluted sample were loaded to 384 well Optiplates and 5 μL of the acceptor mix (as described in the AlphaLISA kit) was added to each well. The plates were sealed and briefly vortexed followed by the incubation at RT for 3 hours. In the dark, 5 μL of donor mix was added to each well. All plates were sealed and stored at RT overnight. The plates were read in EnVision reader using standard AlphaLISA settings.
Compound activity was analyzed using CBIS data analysis suite (ChemInnovation, CA). Percentage inhibition was calculated using the following formula: % Inhibition=100%×(1−(mean RLU of test sample−mean RLU of vehicle control)/(mean RLU of EC80 control−mean RLU of vehicle control)). The activity for representative examples of the invention is shown in the following table, wherein A: IC50≤500 nM; B: 500 nM<IC50≤2 μM; C: 2 μM<IC50≤10 μM; D: IC50>10 μM.

Chain of IGF-1R (P08069 31-1367): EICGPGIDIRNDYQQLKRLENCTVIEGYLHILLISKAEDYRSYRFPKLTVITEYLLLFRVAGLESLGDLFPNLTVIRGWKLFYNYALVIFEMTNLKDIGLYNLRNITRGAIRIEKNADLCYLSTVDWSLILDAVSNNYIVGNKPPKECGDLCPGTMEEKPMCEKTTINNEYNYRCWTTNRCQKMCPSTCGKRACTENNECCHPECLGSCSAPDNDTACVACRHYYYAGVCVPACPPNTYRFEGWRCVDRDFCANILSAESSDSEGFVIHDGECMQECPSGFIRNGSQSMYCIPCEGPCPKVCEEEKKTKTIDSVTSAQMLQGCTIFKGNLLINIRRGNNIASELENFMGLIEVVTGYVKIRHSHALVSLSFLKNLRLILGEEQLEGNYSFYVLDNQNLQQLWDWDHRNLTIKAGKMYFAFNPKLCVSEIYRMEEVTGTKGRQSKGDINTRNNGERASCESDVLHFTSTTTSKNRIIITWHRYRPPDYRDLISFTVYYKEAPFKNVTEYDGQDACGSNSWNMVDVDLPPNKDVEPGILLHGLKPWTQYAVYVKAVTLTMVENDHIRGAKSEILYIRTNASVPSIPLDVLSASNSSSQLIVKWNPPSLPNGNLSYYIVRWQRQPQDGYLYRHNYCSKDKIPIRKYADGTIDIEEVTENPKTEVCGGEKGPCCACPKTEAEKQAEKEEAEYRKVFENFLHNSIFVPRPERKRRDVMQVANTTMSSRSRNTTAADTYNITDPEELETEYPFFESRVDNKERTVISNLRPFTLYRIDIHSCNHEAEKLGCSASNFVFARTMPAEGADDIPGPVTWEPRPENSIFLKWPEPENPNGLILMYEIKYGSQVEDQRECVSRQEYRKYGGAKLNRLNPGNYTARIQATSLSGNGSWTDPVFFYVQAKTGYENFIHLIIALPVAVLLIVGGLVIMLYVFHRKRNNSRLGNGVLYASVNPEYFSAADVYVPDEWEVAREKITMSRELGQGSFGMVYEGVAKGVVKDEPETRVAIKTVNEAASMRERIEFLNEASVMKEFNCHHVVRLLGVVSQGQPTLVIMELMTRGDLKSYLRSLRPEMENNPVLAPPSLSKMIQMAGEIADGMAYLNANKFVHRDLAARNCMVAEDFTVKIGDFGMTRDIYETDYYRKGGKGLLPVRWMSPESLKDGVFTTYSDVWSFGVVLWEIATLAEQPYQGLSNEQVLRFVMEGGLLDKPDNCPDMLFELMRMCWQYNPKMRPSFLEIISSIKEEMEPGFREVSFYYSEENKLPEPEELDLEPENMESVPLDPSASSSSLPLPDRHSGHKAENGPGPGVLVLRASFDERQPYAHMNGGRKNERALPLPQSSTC

pIC50 | Compound
≥ 6.30 | COc1cc(Nc2nccc(Nc3cnc4ccc(Br)cc4c3)n2)ccc1O[C@H]1CC[C@@H](N(C)C)CC1 [Compound 33, 4-(6-bromo-3-quinolylamino)-2-{3-methoxy-4-[(1s,4s)-4-(dimethylamino)cyclohexyloxy]phenylamino}pyrimidine]
≥ 6.30 | COc1cc(Nc2nccc(Nc3cnc4ccccc4c3)n2)ccc1OC1CN(C)C1 [Compound 37, 2-[3-methoxy-4-(1-methyl-3-azetidinyloxy)phenylamino]-4-(3-quinolylamino)pyrimidine]
≥ 6.30 | O=S1(=O)CCN([C@H]2CC[C@@H](Oc3ccc(Nc4nccc(Nc5cnc6ccccc6c5)n4)cc3)CC2)CC1 [Compound 38, 4-[(1s,4s)-4-{p-[4-(3-quinolylamino)-2-pyrimidinylamino]phenoxy}cyclohexyl]-126,4-thiazinane-1,1-dione]
≥ 6.30 | c1ccc2ncc(Nc3ccnc(Nc4ccc(O[C@H]5CC[C@@H](N6CCOCC6)CC5)cc4)n3)cc2c1 [Compound 39, 4-(3-quinolylamino)-2-{p-[(1s, 4s)-4-morpholinocyclohexyloxy]phenylamino}pyrimidine]
≥ 6.30 | CN(C)[C@H]1CC[C@@H](Oc2ccc(Nc3nccc(Nc4cnc5ccccc5c4)n3)cc2)CC1 [Compound 40, 4-(3-quinolylamino)-2-{p-[(1s,4s)-4-(dimethylamino)cyclohexyloxy]phenylamino}pyrimidine]
≥ 6.30 | O=C1CN([C@H]2CC[C@@H](Oc3ccc(Nc4nccc(Nc5cnc6ccccc6c5)n4)cc3)CC2)CCN1 [Compound 41]
≥ 6.30 | CN1CC2(Cc3ccc(Nc4nccc(Nc5cc6cccc(F)c6[nH]c5=O)n4)cc3O2)C1 [Compound 45, 8-fluoro-3-{2-(1-methyl-3′H-spiro[azetidine-3,2′-[1]benzofuran]-6′-ylamino)-4-pyrimidinylamino}-1,2-dihydro-2-quinolinone]
≥ 6.30 | COc1cc(Nc2nccc(Nc3cnc4cc(F)c(F)cc4c3)n2)cnc1N1CC(N(C)C)C1 [Compound 48, 4-(6,7-difluoro-3-quinolylamino)-2-{6-[3-(dimethylamino)-1-azetidinyl]-5-methoxy-3-pyridylamino}pyrimidine]
≥ 6.30 | COc1cc(Nc2nccc(Nc3cnc4cc(F)c(F)cc4c3)n2)cnc1N1CCN(CC#N)CC1 [Compound 49]
≥ 6.30 | COc1cc(Nc2nccc(Nc3cnc4cc(F)c(F)cc4c3)n2)cnc1N1CC2(COC2)C1 [Compound 50, 4-(6,7-difluoro-3-quinolylamino)-2-{5-methoxy-6-(2-oxa-6-aza-6-spiro[3.3]heptyl)-3-pyridylamino}pyrimidine]
≥ 6.30 | COc1cc(Nc2nccc(Nc3cnc4cc(F)c(F)cc4c3)n2)cnc1N1CCN(C2COC2)CC1 [Compound 51, 4-(6,7-difluoro-3-quinolylamino)-2-{5-methoxy-6-[4-(3-oxetanyl)-1-piperazinyl]-3-pyridylamino}pyrimidine]
≥ 6.30 | COc1cc(Nc2nccc(Nc3cnc4cc(F)c(F)cc4c3)n2)cnc1N1CCNC(C(C)(C)O)C1 (stereo not shown) [Compound 52, 2-(4-{5-[4-(6,7-difluoro-3-quinolylamino)-2-pyrimidinylamino]-3-methoxy-2-pyridyl}-2-piperazinyl)-2-propanol]
≥ 6.30 | COc1cc(Nc2nccc(Nc3cnc4c(c3)COCC4)n2)ccc1OCCCN1CCCCC1 [Compound 53, 4-(7,8-dihydro-5H-6-oxa-1-azanaphth-3-ylamino)-2-[3-methoxy-4-(3-piperidinopropoxy)phenylamino] pyrimidine]
≥ 6.30 | COc1cc(Nc2nccc(Nc3cnc4c(c3)CCOC4)n2)ccc1OCCCN1CCCCC1 [Compound 54, 4-(6,8-dihydro-5H-7-oxa-1-azanaphth-3-ylamino)-2-[3-methoxy-4-(3-piperidinopropoxy)phenylamino] pyrimidine]
≥ 6.30 | COc1cc(Nc2nccc(Nc3cnc4c(c3)C3CCC4C3)n2)ccc1OCCCN1CCCCC1 (stereo not shown) [Compound 56, 4-(3-azatricyclo[6.2.1.0^2,7]undeca-2,4,6-trien-5-ylamino)-2-[3-methoxy-4-(3-piperidinopropoxy)phenylamino] pyrimidine]
≥ 6.30 | COc1cc(Nc2nccc(Nc3cnc4c(c3)CCCCC4)n2)ccc1OCCCN1CCCCC1 [Compound 57, 4-{8-azabicyclo[5.4.0]undeca-1(11),7,9-trien-10-ylamino}-2-[3-methoxy-4-(3-piperidinopropoxy)phenylamino] pyrimidine]
5.70 to 6.30 | COc1cc(Nc2nccc(Nc3cnc4c(c3)C3CCC(C4)O3)n2)ccc1OCCCN1CCCCC1 (stereo not shown) [Compound 60, 2-[3-methoxy-4-(3-piperidinopropoxy)phenylamino]-4-{12-oxa-6-azatricyclo[7.2.1.0^2,7]dodeca-2(7),3,5-trien-4-ylamino}pyrimidine]
≥ 6.30 | COc1cc(Nc2nccc(Nc3cnc4c(c3)SC(C)CC4)n2)ccc1OCCCN1CCCCC1 (stereo not shown) [Compound 61, 2-[3-methoxy-4-(3-piperidinopropoxy)phenylamino]-4-(2-methyl-3,4-dihydro-2H-1-thia-5-azanaphth-7-ylamino)pyrimidine]
≥ 6.30 | COc1cc(Nc2nccc(Nc3cnc4c(c3)CC(C)CC4)n2)ccc1OCCCN1CCCCC1 (stereo not shown) [Compound 62, 2-[3-methoxy-4-(3-piperidinopropoxy)phenylamino]-4-(6-methyl-5,6,7,8-tetrahydro-3-quinolylamino)pyrimidine]
≥ 6.30 | CC1(C)CCc2ncc(Nc3ccnc(Nc4ccc(OCCCN5CCOCC5)cc4)n3)cc2C1 [Compound 63, 4-(6,6-dimethyl-5,6,7,8-tetrahydro-3-quinolylamino)-2-[p-(3-morpholinopropoxy)phenylamino] pyrimidine]
≥ 6.30 | CC1(C)CCc2cc(Nc3ccnc(Nc4ccc(OCCCN5CCOCC5)cc4)n3)cnc2C1 [Compound 64, 4-(7,7-dimethyl-5,6,7,8-tetrahydro-3-quinolylamino)-2-[p-(3-morpholinopropoxy)phenylamino] pyrimidine]
≥ 6.30 | CC1(C)COc2cc(Nc3ccnc(Nc4ccc(OCCCN5CCOCC5)cc4)n3)cnc2O1 [Compound 65, 4-(3,3-dimethyl-2,3-dihydro-1,4-dioxa-5-aza-7-naphthylamino)-2-[p-(3-morpholinopropoxy)phenylamino]pyrimidine]
5.70 to 6.30 | COC1CCc2cc(Nc3ccnc(Nc4ccc(OCCCN5CCOCC5)cc4)n3)cnc2C1 (stereo not shown) [Compound 66, 4-(7-methoxy-5,6,7,8-tetrahydro-3-quinolylamino)-2-[p-(3-morpholinopropoxy)phenylamino] pyrimidine]

Compound | pIC50
CN(C)[C@H]1C[C@H](Oc2ccc(Nc3nccc(Nc4cnc5ccccc5c4)n3)cc2Br)C1 [Compound 34, 2-{3-bromo-4-[(1r,3r)-3-(dimethylamino)cyclobutoxy]phenylamino}-4-(3-quinolylamino)pyrimidine] | ≥ 6.30
CN(C)[C@H]1C[C@H](Oc2ccc(Nc3nccc(Nc4cnc5ccccc5c4)n3)cc2Cl)C1 [Compound 35, 2-{3-chloro-4-[(1r,3r)-3-(dimethylamino)cyclobutoxy]phenylamino}-4-(3-quinolylamino)pyrimidine] | ≥ 6.30
CN(C)[C@H]1C[C@H](Oc2ccc(Nc3nccc(Nc4cnc5ccccc5c4)n3)cc2C(F)(F)F)C1 [Compound 36, 4-(3-quinolylamino)-2-{4-[(1r,3r)-3-(dimethylamino)cyclobutoxy]-3-(trifluoromethyl)phenylamino} pyrimidine] | ≥ 6.30
CN(C)[C@H]1C[C@H](Oc2ccc(Nc3nccc(Nc4cnc5ccccc5c4)n3)cc2C#N)C1 [Compound 42, 5-[4-(3-quinolylamino)-2-pyrimidinylamino]-2-[(1r,3r)-3-(dimethylamino)cyclobutoxy] benzonitrile] | ≥ 6.30
CN(C)[C@H]1C[C@@H](Oc2ccc(Nc3nccc(Nc4cnc5c(c4)OCCO5)n3)cc2C#N)C1 [Compound 43, 5-[4-(2,3-dihydro-1,4-dioxa-5-aza-7-naphthylamino)-2-pyrimidinylamino]-2-[(1s,3s)-3-(dimethylamino)cyclobutoxy] benzonitrile] | ≥ 6.30
COc1cc(Nc2nccc(Nc3cnc4c(c3)OCCO4)n2)cc(C#N)c1O[C@H]1C[C@H](N(C)C)C1 [Compound 44, 5-[4-(2,3-dihydro-1,4-dioxa-5-aza-7-naphthylamino)-2-pyrimidinylamino]-3-methoxy-2-[(1r,3r)-3-(dimethylamino)cyclobutoxy] benzonitrile] | ≥ 6.30
CN(C)[C@H]1C[C@@H](Oc2ncc(Nc3nccc(Nc4cnc5c(c4)OCCO5)n3)cc2C#N)C1 [Compound 46, 5-[4-(2,3-dihydro-1,4-dioxa-5-aza-7-naphthylamino)-2-pyrimidinylamino]-2-[(1s,3s)-3-(dimethylamino)cyclobutoxy] nicotinonitrile] | ≥ 6.30
COCCN(C)[C@H]1C[C@@H](Oc2ccc(Nc3nccc(Nc4cnc5cc(F)c(F)cc5c4)n3)cc2OC)C1 [Compound 47, 4-(6,7-difluoro-3-quinolylamino)-2-(3-methoxy-4-{(1s,3s)-3-[(2-methoxyethyl)-N-methylamino]cyclobutoxy}phenylamino)pyrimidine] | ≥ 6.30
